Article PMC8997832, “Genetic Engineering Production of Ethyl Carbamate Hydrolase and Its Application in Degrading Ethyl Carbamate in Chinese Liquor” (Foods, 2022)

Tested on: T1, ethyl carbamate hydrolase (ECH; AcECH)
T1 construct: codon-optimized synthetic gene in pET24b (NdeI/XhoI), C-terminal His-tag kept, E. coli BL21(DE3), Ni-NTA purified; about 33 kDa by SDS-PAGE
Assay: Berthelot indophenol ammonia assay, […] nm; Lineweaver-Burk
Format: biochemical, Acinetobacter calcoaceticus
Details: free enzyme; 5-30 mM EC; standard assay 70 °C, pH 7.0 (not restated for kinetics)

## CCOC(N)=O [EC, ethyl carbamate]
  Km: 9.38 mM
